Series [1] has as its target T1, HDAC 6 (Homo sapiens, UniProt Q9UBN7).
T1 sequence (Q9UBN7 1-1215): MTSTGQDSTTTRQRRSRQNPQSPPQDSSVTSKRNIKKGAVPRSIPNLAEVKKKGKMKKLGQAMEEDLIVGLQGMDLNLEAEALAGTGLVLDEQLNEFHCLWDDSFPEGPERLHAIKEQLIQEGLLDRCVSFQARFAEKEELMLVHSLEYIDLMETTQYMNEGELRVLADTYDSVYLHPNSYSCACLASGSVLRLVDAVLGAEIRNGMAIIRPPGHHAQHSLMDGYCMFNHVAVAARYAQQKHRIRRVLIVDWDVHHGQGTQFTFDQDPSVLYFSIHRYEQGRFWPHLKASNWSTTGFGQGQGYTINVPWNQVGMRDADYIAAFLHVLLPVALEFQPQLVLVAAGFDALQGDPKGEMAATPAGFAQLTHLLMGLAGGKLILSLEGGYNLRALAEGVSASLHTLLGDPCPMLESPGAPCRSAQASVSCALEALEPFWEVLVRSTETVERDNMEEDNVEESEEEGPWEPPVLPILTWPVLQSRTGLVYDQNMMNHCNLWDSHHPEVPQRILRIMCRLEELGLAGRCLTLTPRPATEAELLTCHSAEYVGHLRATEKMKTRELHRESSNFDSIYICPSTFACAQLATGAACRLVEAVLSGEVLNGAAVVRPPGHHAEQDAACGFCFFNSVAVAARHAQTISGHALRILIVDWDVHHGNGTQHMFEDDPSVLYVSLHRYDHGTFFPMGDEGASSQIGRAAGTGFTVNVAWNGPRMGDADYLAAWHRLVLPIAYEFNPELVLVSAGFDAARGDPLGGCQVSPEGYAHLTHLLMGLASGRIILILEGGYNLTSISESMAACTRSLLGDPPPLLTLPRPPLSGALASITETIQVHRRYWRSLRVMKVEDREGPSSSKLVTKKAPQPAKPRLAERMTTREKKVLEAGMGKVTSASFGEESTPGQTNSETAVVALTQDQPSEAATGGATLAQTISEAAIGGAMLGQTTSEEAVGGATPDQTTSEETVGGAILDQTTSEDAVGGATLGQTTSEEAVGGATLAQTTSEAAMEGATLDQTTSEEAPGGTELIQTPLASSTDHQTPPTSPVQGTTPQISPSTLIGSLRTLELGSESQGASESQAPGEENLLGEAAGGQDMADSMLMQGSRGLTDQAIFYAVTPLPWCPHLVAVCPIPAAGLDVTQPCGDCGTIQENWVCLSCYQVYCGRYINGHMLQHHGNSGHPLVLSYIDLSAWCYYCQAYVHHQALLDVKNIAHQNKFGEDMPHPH
The series is described as follows: HDAC 6 inhibition assay, fluorophore/quencher peptide substrate, no preincubation. It counts as biochemical. The conditions noted are these: no preincubation of enzyme and compound; read-out: HDAC 6 inhibitory activity (IC50 [μM]) No preincubation. The procedure:
(§1) HDAC inhibitory activity of the compound of Example 1 was measured by two types of assays in which HDAC 1 and 6 were used as a target molecule. The first assay was carried out without preincubation after addition of the enzyme. The test compound was suspended in and titrated in DMSO. It was then spotted into a 384-well test plate. The enzyme, HDAC 1 or 6, was diluted in assay buffer containing 25 mM Tris-HCl (pH 8.0), 137 mM NaCl, 2.7 mM KCl, and 0.01% Tween-20 and added to the pre-spotted compound. The peptide substrate containing a fluorophore/quencher pair was diluted in the same assay buffer and added to the compound/enzyme mix initiating the reaction. The reaction incubated at room temperature for about 45 minutes. A concentrated developer solution was diluted in the assay buffer, and added to the reaction. The reaction was incubated at room temperature for about 15 minutes and relative fluorescence was read on an instrument reader.

The target in series [2] is T2, HDAC 1 (Homo sapiens, UniProt Q13547). The series is described as follows: HDAC 1 inhibition assay, fluorophore/quencher peptide substrate, no preincubation. It counts as biochemical. The conditions noted are these: no preincubation of enzyme and compound; read-out: HDAC 1 inhibitory activity (IC50 [μM]) No preincubation. The procedure: as §1
T2 sequence (Q13547 whole entry, species assumed): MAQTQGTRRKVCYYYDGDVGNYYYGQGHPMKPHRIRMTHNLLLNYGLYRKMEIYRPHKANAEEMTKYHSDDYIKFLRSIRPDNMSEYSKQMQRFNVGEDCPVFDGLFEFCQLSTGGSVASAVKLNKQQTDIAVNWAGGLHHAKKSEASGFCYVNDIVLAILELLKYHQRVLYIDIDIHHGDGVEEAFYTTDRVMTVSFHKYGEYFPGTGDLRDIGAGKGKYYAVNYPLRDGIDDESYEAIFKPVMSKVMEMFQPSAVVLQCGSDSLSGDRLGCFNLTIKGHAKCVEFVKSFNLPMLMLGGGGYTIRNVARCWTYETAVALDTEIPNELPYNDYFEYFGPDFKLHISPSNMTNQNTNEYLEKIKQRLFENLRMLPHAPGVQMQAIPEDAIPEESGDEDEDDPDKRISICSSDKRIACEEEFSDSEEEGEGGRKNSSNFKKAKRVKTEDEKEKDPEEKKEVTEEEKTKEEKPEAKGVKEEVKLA
Series [3] has as its target T1, HDAC 6. The series is described as follows: HDAC 6 inhibition assay, fluorophore/quencher peptide substrate, 3-hour preincubation. The conditions noted are these: about 3 hours preincubation of enzyme/compound mix at room temperature; read-out: HDAC 6 inhibitory activity (IC50 [μM]) 3-hour preincubation. It is filed as biochemical. The procedure: (§2) The second assay is similar to the first assay described above, except that preincubation is carried out for about 3 hours after the enzyme is introduced. The test compound was suspended in, and titrated in DMSO. It was then spotted into a 384-well test plate. The enzyme, HDAC 1 or 6, was diluted in the same assay buffer as used in the previous assay and added to the pre-spotted compound. The enzyme/compound mix was incubated at room temperature for about 3 hours. The peptide substrate containing a fluorophore/quencher pair was diluted in the assay buffer and added to the compound/enzyme mix initiating the reaction. The reaction incubated at room temperature for 45 minutes. A concentrated developer solution was diluted in the assay buffer, and added to the reaction. The reaction was incubated at room temperature for about 15 minutes and relative fluorescence was read on an instrument reader.

The target in series [4] is T2, HDAC 1. The series is described as follows: HDAC 1 inhibition assay, fluorophore/quencher peptide substrate, 3-hour preincubation. It counts as biochemical. The conditions noted are these: about 3 hours preincubation of enzyme/compound mix at room temperature; read-out: HDAC 1 inhibitory activity (IC50 [μM]) 3-hour preincubation. The procedure: as §2

Molecule `CN(C)Cc1c(C(=O)NCCOc2ccc(C(=O)Nc3ccccc3N)cc2)oc2ccccc12` [Example 1, N-(2-aminophenyl)-4-[2-(3-dimethylaminomethylbenzofuran-2-ylcarbonylamino)-ethoxy]-benzamide] gave a melting point of 205.1 °C. Also, the IC50 on HDAC 6 [1] was over 50 µM. For the same molecule, at HDAC 1 [2], the IC50 amounted to 0.03 µM. Moreover, the IC50 on HDAC 6 [3] is over 50 µM. Besides, on HDAC 1 [4], the IC50 was 0.0033 µM.

In general, melting point refers to the temperature, or range, at which the solid turns liquid. By IC50 is commonly meant the concentration that inhibits the measured activity by half.

Values taken from US20100292320A1, “BENZOFURAN ANILIDE HISTONE DEACETYLASE INHIBITORS” (Gilead Colorado, Inc., priority 2007, published 2010).
